In US9896512B2, “Antitumor peptide derived from a complementarity determining region of a humanized monoclonal antibody to NAP12B transporter” (Recepta Biopharma S.A., priority 2010, dated 2018):
“Also recorded” adds a separate entry of the source. No end group written: not given here.

Columns and labels:
[1] = test system: human cervix cancer SiHa cells; test: Cell migration, wound healing assay; type: cell-based; conditions: peptide 500 μM, 24 hours
Procedure: (§1) For the migration studies, 5×10^5 or 10^6 cells were distributed on 6-well plates and let them to adhere for 2 hours at 37° C./5% CO2. The culture medium was changed and the peptide was added at 500 μM overnight. The cell monolayer was “wounded” with a P1000 tip and incubated for 24 hours. Images of untreated cells (control) and peptide treated cells were captured with a JENOPTIK camera. Cell numbers (nuclei) were determined using the Pixcavator software version 5.0.

[2] = test system: human glioblastoma U87 cells; test: Cell migration, wound healing assay; type: cell-based; conditions: peptide 500 μM, 24 hours
Procedure: as §1

HCT cells = test: Detection of peptide-treated hyper adherent cells (MTT after trypsin-EDTA); type: cell-based, human; conditions: 500 μM peptide, 24 hours
Procedure: (§2) Viable SiHa cells (1×10^4)/well were distributed on a 96-well culture plate and incubated for 4 hours at 37° C. in a humidified chamber with 5% CO2. Fresh medium containing different peptide concentrations of RB9 (SEQ ID NO: 8) and RB10 (SEQ ID NO: 9) ranging from 0 to 1 mM (i.e., 0, 0.25, 0.5 and 1 mM) was added to the wells and incubated for 24 hours. The medium was then aspirated; cells were detached with 30 μl/well of trypsin-EDTA for five minutes at 37° C. and gently washed with PBS. Hyper-adherent cells were incubated for 4 hours with 0.5 mg/mL of MTT [3-(4,5-dimethylthiazol-2-yl)-2,5-diphenyltetrazolium bromide] in fresh medium and formazan crystals were solubilized adding 1 volume of 10% SDS solution overnight. Intensity was measured using a plate reader at 570 nm.
Viable HCT cells (1×10^4)/well were distributed on a 96-well culture plate and incubated for 4 hours, following the same protocol of Example 5.

[3] = test system: B16F10-Nex2 melanoma cells; test: Cell migration, wound healing assay; type: cell-based, murine; conditions: for inhibition of cell migration (words): peptide 500 μM, 24 hours after wounding
Procedure: as §1
Viable B16F10-Nex2 cells (5×105)/well were distributed on a 6-well culture plate and incubated overnight at 37° C. in a humidified chamber with 5% CO2. A P1000 tip was used for wounding the cell monolayer and the image was immediately captured (0 hour) using a camera (Jenoptik) with the software Progres 2.8. After 24 hours a new image of the same field was obtained and recorded (24 hours).
Viable B16F10-Nex2 cells (3×10^5)/well were distributed in a 12-well culture plate and incubated for 4 hours at 37° C. in a humidified chamber with 5% CO2. Fresh medium containing RB10 (SEQ ID NO: 9) at different concentrations was added to the wells and incubated again for 4 hours. The monolayer wounding was performed as described above in Example 12, and images obtained accordingly. After 24 hours a new image in the same field was obtained and recorded (24 hours). […] Magnification ×100.

SiHa cells = test: Detection of peptide-treated hyper adherent cells (MTT after trypsin-EDTA); type: cell-based, human; conditions: 500 μM peptide, 24 hours
Procedure: as §2

[4] = test system: B16F10-Nex2 melanoma cells; test: In vivo protection against lung colonization (metastatic melanoma model); parameters: species or system C57B1/6 mice; conditions: 250 μg i.p. on days 1, 3, 5, 7, 9, 11; lungs after 22 days
Procedure: Details of the in vitro tumor cell growth, cytotoxicity tests, determination of viable cells and in vivo protection experiments with B16F10 cells in a mouse metastatic model are described in Polonelli et al. (PLoS One. 3(6):e2371, 2008) and Dobroff et al. (Translat. Onc., 3: 204-217, 2010).
Peptides RB9 and RB10 along with the apoptotic peptide A4H3, a true microantibody of cytotoxic anti-melanoma mAb (A4) (Dobroff et al., Translat. Onc., 3: 204-217, 2010), were tested for their protective effects against lung colonization by B16F10-Nex2 melanoma cells (2×105) injected intravenously in C57B1/6 mice (6 animals/group). Peptides were intraperitoneally administered (250 μg i.p.) on days 1, 3, 5, 7, 9, 11 after tumor cell challenge. Lungs of peptide-treated animals are shown in FIG. 5 after 22 days of tumor challenge. As noticed, peptide treatment was interrupted 10 days before animal sacrifice.
In vivo protection by peptides RB9 and RB10 (and A4H3 control) against lung colonization by B16F10-Nex2 melanoma cells (2×105) injected intravenously in C57B1/6 mice (6 animals/group) is shown in FIG. 6. The other 5 CDRs of RebMab200 (SEQ ID NOs: 7, 10, 11, 12, 13) were unprotective in vivo. Peptides were administered in the same way as described above, and the number of lung nodules was determined.

OVCAR-3 cells = test: Effect on ovarian carcinoma cells (trypsin-EDTA detachment, Trypan blue or MTT); type: cell-based, human; conditions: for cytotoxicity / activity against OVCAR-3 cells: 0 to 1 mM, 24 hours, Trypan blue / MTT; for hyper-adherent effect (detachment with trypsin/EDTA): up to 1 mM peptide
Procedure: (§3) Viable OVCAR-3 cells (1×10^4)/well were distributed on a 96-well culture plate and incubated for […] with different concentrations of RB9 (SEQ ID NO: 8) ranging from 0 to 1 mM for 24 hours. Cells were detached with 30 μl/well of trypsin-EDTA for five minutes at 37° C. and counted in a Neubauer chamber with Trypan blue or estimated by the colorimetric MTT assay.

HL-60 cells = test: Cell viability, Trypan blue count or MTT assay; type: cell-based, human; conditions: for cytotoxicity to HL-60 cells: cells growing in suspension, Trypan blue / MTT
Procedure: as §3, with “HL-60” for “OVCAR-3”, “Cell viability was directly measured by counting” for “Cells were detached with 30 μl/well of trypsin-EDTA for five minutes at 37° C. and counted”

[5] = test system: A2058 human melanoma cells; test: Cell adherence, trypsin-EDTA detachment, Trypan blue count; type: cell-based; conditions: 24 hours; FIGS. 2A-2D (SKBR3 and A2058), cell line not given; read-out: peptide concentration at which 50% of cells were trypsin-EDTA resistant
Procedure: SKBR3 cells (1×10^4) were cultivated in 96-well plates and incubated with RB9 (SEQ ID NO: 8) and RB10 (SEQ ID NO: 9). After 18 hours incubation, viable cells detached with trypsin/EDTA were counted using Trypan blue exclusion staining. Assays were performed in triplicate in two independent experiments. The A2058 human melanoma cells (1×10^4) were incubated for 4 hours at 37° C. in a humidified chamber with 5% CO2. Fresh media containing different peptide concentrations of RB9 and RB10 ranging from 0 to 1 mM (i.e., 0, 0.25, 0.5 and 1 mM) was added to the wells and incubated for 24 hours. The media was then aspirated, cells were detached with 30 μl/well of trypsin-EDTA for five minutes at 37° C. and viable cells were counted in a Neubauer chamber using Trypan blue. As shown in FIGS. 2A-2D, 50% of cells were trypsin-EDTA resistant at 630 and 610 μM RB9 and RB10, respectively.

Row | Molecule | inhibition of cell migration [1] | inhibition of cell migration [2] | cells resistant to trypsinization (HCT cells) [%] | inhibition of cell migration ([3]; 30 μM, 24 hours) | inhibition of cell migration ([3]; 500 μM, 24 hours) [%] | migration inhibition, dose dependence ([3]; different concentrations, 24 hours) | inhibition of cell migration (words) [3] | tumor cells resistant to trypsinization (SiHa cells) [%] | protection against lung colonization (lung nodules) [4] | cytotoxicity / activity against OVCAR-3 cells (OVCAR-3 cells) | hyper-adherent effect (detachment with trypsin/EDTA) (OVCAR-3 cells) | cytotoxicity to HL-60 cells (HL-60 cells) | EC50 [5] [µM] | EC50 (HL-60 cells; 24 hours, Trypan blue and MTT, read-out: concentration reducing cell viability by 50% (ED50)) [µM]
1 | CARGETARATFAYWGQG-NH2 [RB10, CARGETARATFAYWGQG-NH2] | complete or almost complete inhibition | partial migration inhibition | 80 | more than 30% | 100 | dose-dependent inhibition | Total inhibition; also recorded: inhibited; also recorded: complete inhibition | 80 | successfully protected; also recorded: protective; also recorded: reduced | inactive | normally detached | mildly cytotoxic | 610 | 
2 | C[C@@H]1NC(=O)[C@H](CCCNC(=N)N)NC(=O)[C@H](C)NC(=O)[C@H]([C@@H](C)O)NC(=O)[C@H](CCC(=O)O)NC(=O)CNC(=O)[C@H](CCCNC(=N)N)NC(=O)[C@H](C)NC(=O)[C@@H](N)CSSC[C@@H](C(N)=O)NC(=O)CNC(=O)[C@H](CCC(N)=O)NC(=O)CNC(=O)[C@H](Cc2c[nH]c3ccccc23)NC(=O)[C@H](Cc2ccc(O)cc2)NC(=O)[C@H](C)NC(=O)[C@H](Cc2ccccc2)NC(=O)[C@H]([C@@H](C)O)NC1=O [RB9, CARGETARATFAYWGQGC-NH2] | no effect; also recorded: non-inhibition | poorly; also recorded: partial inhibition | 80 |  |  |  | Total inhibition; also recorded: complete inhibition | 30 | successfully protected; also recorded: reduced | inactive; also recorded: no significant decrease in viability; also recorded: lack of cytotoxicity | normally detached; also recorded: most cells were unaffected | mildly cytotoxic; also recorded: mild cytotoxicity | 630 | 920 to 930
